Results as given in US5290776A, “Azole derivatives” (Imperial Chemical Industries, PLC, priority 1991, dated 1994).

Assays:
[1] = tested on: vasodilation response during twitch contraction of skeletal muscle; assay: Anaesthetised cat exercise hyperaemia test; assay type: in vivo; conditions: 10 mg.kg^-1
Protocol: (f) Anaesthetised cat exercise hyperaemia test
This test involves assessment of the effect of a test compound to antagonise the vasodilation response which occurs during twitch contraction of skeletal muscle. The vasodilation is mediated partly by the release of endogenous adenosine from the contracting skeletal muscle.
Cats (2.4-3.6 kg) are anaesthetised with sodium pentobarbitone (50 mg.kg^-1 ip). The following blood vessels are catheterized: left jugular vein (for infusion of anaesthetic, at approximately […] as a 6 mg.ml^-1 solution in isotonic saline), right external jugular vein (for administration of drugs and test compounds), right common carotid artery (for measurement of systemic arterial blood pressure and pulse rate) and right brachial artery (for withdrawal of blood).
Blood flow to the left hind limb is measured with an electromagnetic flow probe around the left external iliac artery. The whole of the left hind limb is made to contract at 3 Hz for 20 minutes duration by stimulating the sciatic and femoral nerves. Active tension produced by the extensor digitorum longus and peroneous longus muscles is measured isometrically with a force transducer. Exercise is repeated twice within the same animal, in either the absence or presence of the test compound. Test compounds are assessed for their ability to reduce the vasodilation during skeletal muscle contraction.

[2] = tested on: adenosine receptor known as A2; assay: Guinea-pig Aortic Constriction Test; assay type: cell-based; conditions: antagonism of adenosine attenuation of phenylephrine induced constriction, guinea-pig aortic ring
Description: (b) Guinea-pig Aortic Constriction Test
This test has been described by Collis et al. (British J. Pharmacology, 1989, 97, 1274-1278) and involves the assessment of the ability of a test compound to antagonise the attenuatory effect of adenosine on phenylephrine induced constriction of a guinea-pig aortic ring preparation, an effect mediated via the adenosine receptor known as A2.
The aortic ring preparation is obtained as follows:
Sections (3-5 mm) of guinea pig thoracic aorta (from Dunkin Hartley strain, 250-400 g males) are mounted in organ baths containing oxygenated Krebs solution (95% O2 : 5% CO2) at 37° C. [The nucleoside transport inhibitor, dipyridamole (10 μM) is present in the Krebs solution]. The isometric tension development is recorded and the tissue placed under a resting tension of 1 g and allowed to equilibrate for 1 hour. […] Adenosine is next added cumulatively (10^-7 M to 10^-3 M) and the evoked relaxation is measured. […]
Test compounds are assessed by plotting the percentage relaxation observed against the logarithm of the adenosine concentration, competitive adenosine antagonism producing a parallel shift in the standard adenosine concentration/relaxation (dose response) curve. […] The pA2 value, which is an estimate of the concentration of antagonist to give a dose ratio of 2, may also be calculated using a standard computation technique.

[3] = target: T1, adenosine receptor known as A1 (Cavia porcellus, UniProt P47745); assay: Guinea-pig Atrial Bradycardic Test; assay type: cell-based; conditions: antagonism of bradycardic effect of 2-chloroadenosine, beating guinea-pig atrial preparation; read-out: pA2 (converted)
T1 construct: Atrial pairs are obtained from guinea-pigs; from tissue; host or cells: guinea-pig atrial pairs (Dunkin Hartley)
T1 sequence (P47745 1-326): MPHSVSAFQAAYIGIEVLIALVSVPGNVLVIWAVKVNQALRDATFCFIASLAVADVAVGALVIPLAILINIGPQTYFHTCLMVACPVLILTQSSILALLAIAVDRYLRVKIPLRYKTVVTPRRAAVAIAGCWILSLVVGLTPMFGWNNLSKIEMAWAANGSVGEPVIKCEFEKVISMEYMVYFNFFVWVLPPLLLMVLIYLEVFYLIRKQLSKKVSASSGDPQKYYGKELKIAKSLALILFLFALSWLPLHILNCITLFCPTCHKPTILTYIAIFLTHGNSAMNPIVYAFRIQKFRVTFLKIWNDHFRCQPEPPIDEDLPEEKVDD
Protocol: (c) Guinea-pig Atrial Bradycardic Test
The spontaneously beating atria are then placed under a resting tension of 1 g and allowed to equilibrate for 50 minutes with continuous overflow. Overflow is then stopped and adenosine deaminase (1 Unit/ml) added to prevent the accumulation of endogenously produced adenosine. […] After washout during 30 minutes, adenosine deaminase is readministered to the bath which is allowed to equilibrate for 15 minutes. A 10^-5 M solution of the test compound in DMSO is then added to the bath which is left to incubate for 30 minutes. Any effect on the beating rate due to the test compound is noted before the dose response curve to 2-chloroadenosine is repeated. Compounds which are adenosine antagonists attenuate the 2-chloroadenosine response.
Test compounds are assessed by comparing dose response curves to 2-chloroadenosine alone with those obtained in the presence of the compound. Competitive adenosine antagonists produce a parallel shift in the 2-chloroadenosine dose response curve. […] The pA2 is then obtained in an analogous manner to that referred to in (b) above.

[4] = target: T2, A2 Adenosine receptor (Rattus norvegicus, UniProt P30543); assay: A2 Adenosine receptor affinity test ([3H]-NECA displacement, PC12 membranes); assay type: binding; conditions: displacement of [3H]-NECA from rat PC12 cell membranes
T2 construct: membrane preparations derived from the rat phaeochromocytoma cell line PC 12; host or cells: PC 12 (rat phaeochromocytoma), membranes
Protocol: The membrane preparation is obtained as follows: Frozen pellets of PC12 cells are washed twice with ice cold, buffered, physiological saline and the cells recovered by centrifugation (1500 G) at 3° C. The separated cells are then suspended in hypotonic solution (distilled water), allowed to stand on ice for 30 minutes and are then carefully homogenized using a standard high-speed homogeniser with periodic ice-cooling to obtain a fine suspension. […] The mixture is then incubated at 37° C. After 20 minutes, the reaction is terminated by dilution with ice-cold buffer and transfer onto ice. The material obtained containing the cell membranes is recovered by centrifugation and washed by resuspension in buffer and recentrifugation. The pellet produced is then resuspended in ice-cold buffer using a hand-driven homogenizer. The resultant membrane suspension is frozen and stored under liquid nitrogen until required.
After incubation, the samples are rapidly filtered over glass-fibre mats and the filter mats are washed to remove non-receptor-bound radioligand. Receptor-bound radioligand entrapped on the filter mats is then determined by liquid scintillation counting. […] The specific binding (defined as the difference between the total binding and the non-specific binding) in the presence of the particular test compound is determined and compared with the control value.

T2 sequence (P30543 whole entry): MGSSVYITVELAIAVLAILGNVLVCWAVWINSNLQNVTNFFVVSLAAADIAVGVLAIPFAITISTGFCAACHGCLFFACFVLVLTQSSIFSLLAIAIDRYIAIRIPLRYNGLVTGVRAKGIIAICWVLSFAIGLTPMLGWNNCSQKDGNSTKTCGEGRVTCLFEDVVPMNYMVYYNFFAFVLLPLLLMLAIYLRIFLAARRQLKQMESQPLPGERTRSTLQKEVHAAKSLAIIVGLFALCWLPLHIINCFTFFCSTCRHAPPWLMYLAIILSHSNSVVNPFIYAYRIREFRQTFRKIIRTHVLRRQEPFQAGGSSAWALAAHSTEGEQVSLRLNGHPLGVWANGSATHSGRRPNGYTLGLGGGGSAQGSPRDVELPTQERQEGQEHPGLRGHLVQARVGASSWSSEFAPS

| Compound | inhibition of vasodilation during skeletal muscle contraction [1] | pA2 [2] | Kb [3] [nM] | IC50 [4] [nM] |
| --- | --- | --- | --- | --- |
| Cn1c(=O)c2[nH]cnc2n(C)c1=O [1,3-dimethylxanthine] | significant inhibition | about 5 | – | – |
| Nc1nc(-c2ccccc2)nc2nc(-c3ccco3)nn12 [Example 1, 7-amino-2-(2-furyl)-5-phenyl-[1,2,4]-triazolo[1,5-a][1,3,5]triazine] | – | – | 39.8 | ~25.1 |
